Experimental data: the NIST ThermoML archive (doi:10.1021/je060271a)

Conditions: 283.15 K, Liquid, Vibrating tube method

CCCCCC(=O)OCC(COC(=O)CCCCC)(COC(=O)CCCCC)COC(=O)CCCCC [pentaerythritol tetrahexanoate]
Conditions | mass density [kg/m3]
4636.7 kPa | 1006.7
4649 kPa | 1006.8
4658.7 kPa | 1006.9
4668 kPa | 1006.9
4676.2 kPa | 1006.8
4685.2 kPa | 1006.8
4692.6 kPa | 1006.9
4700 kPa | 1006.9
4708.4 kPa | 1006.8
4714.4 kPa | 1006.8
4721.3 kPa | 1006.9
4726.5 kPa | 1006.8
4731.5 kPa | 1006.9
4736.6 kPa | 1006.9
4742.6 kPa | 1006.9
4748 kPa | 1006.9
4753 kPa | 1006.9
4759.1 kPa | 1006.9
4776 kPa | 1006.9
4786.1 kPa | 1007
4792.3 kPa | 1006.9
4802.7 kPa | 1006.8
4808.2 kPa | 1006.8
4814.3 kPa | 1006.9
4819.8 kPa | 1006.9
4825.4 kPa | 1007
4830.4 kPa | 1007
4835.6 kPa | 1007
4841.6 kPa | 1006.9
4847.2 kPa | 1007
4852.3 kPa | 1006.9
4858.9 kPa | 1007
4864.1 kPa | 1007
4869.3 kPa | 1007
4874.5 kPa | 1007
4881.1 kPa | 1007
4886.6 kPa | 1006.9
4892 kPa | 1006.9
4898.2 kPa | 1006.9
4903.6 kPa | 1007
4909.8 kPa | 1007
4915.2 kPa | 1007
4920.5 kPa | 1006.9
4926.4 kPa | 1007.1
4932 kPa | 1006.8
4938.5 kPa | 1006.9
4943.9 kPa | 1007
4949.3 kPa | 1007
4955.8 kPa | 1007
4961.4 kPa | 1007
4966.9 kPa | 1007
4972.8 kPa | 1007
4978 kPa | 1007
4984.9 kPa | 1007
4990.4 kPa | 1007.2
4996.2 kPa | 1007
5002.7 kPa | 1007.2
5008.1 kPa | 1007
5013.8 kPa | 1007.1
5020.4 kPa | 1007
5026.1 kPa | 1007
5031.5 kPa | 1007.1
5037.2 kPa | 1007
5044.1 kPa | 1007.2
5049.5 kPa | 1007.1
5055.5 kPa | 1007
5060.9 kPa | 1007.1
5067.8 kPa | 1007
5073.5 kPa | 1007.2
5079.2 kPa | 1007.1
5085.4 kPa | 1007.1
5091.5 kPa | 1007.1
